Laboratory results as given in patent publication US7501430B2 (ArQule, Inc., priority 2006, dated 2009).
Where two headings read alike, the source gives them in different places.

Target: T1, mutant B-RAF (Homo sapiens, UniProt P15056, V600E)
T1 construct: purchased Upstate (Charlottesville, Va.)
Experiment: RAF biochemical assay (MEK-1 phosphorylation, anti-phospho MEK1/2 detection)
Conditions: for inhibition at 10 µM: read-out: Mutant B-RAF % inhibition
Outline: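 Detection is by ELISA: after a 30 min room-temperature reaction, plate-captured GST-MEK-1 is probed with anti-phospho MEK1/2, then an AP-tagged secondary antibody with fluorescent Attophos read-out.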

T1 sequence (P15056 whole entry V600E): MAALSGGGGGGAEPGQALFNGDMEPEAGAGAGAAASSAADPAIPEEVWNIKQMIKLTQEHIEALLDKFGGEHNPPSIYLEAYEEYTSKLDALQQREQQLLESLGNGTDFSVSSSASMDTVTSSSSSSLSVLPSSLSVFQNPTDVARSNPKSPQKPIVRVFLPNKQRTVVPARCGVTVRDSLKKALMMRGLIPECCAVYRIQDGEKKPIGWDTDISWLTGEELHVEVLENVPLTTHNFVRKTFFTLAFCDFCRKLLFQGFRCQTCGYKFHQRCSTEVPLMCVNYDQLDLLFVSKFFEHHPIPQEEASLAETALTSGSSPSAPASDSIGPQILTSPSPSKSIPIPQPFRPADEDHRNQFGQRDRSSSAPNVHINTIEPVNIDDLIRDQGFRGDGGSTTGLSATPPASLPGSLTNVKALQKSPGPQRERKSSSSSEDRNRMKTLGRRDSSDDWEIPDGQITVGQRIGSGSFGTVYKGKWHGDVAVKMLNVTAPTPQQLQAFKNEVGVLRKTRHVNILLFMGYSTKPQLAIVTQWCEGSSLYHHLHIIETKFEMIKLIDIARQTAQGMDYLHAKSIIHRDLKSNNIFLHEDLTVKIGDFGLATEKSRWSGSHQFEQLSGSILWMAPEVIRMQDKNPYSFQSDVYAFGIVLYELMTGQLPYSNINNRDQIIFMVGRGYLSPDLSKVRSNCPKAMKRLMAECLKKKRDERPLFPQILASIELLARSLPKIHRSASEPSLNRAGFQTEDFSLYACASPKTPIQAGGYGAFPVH

SMILES	IC50 (read-out: Mutant B-RAF IC50)	further results
O=C(NC1CCCCC1)N1CCC(Nc2nccc(-c3c(-c4ccc(F)cc4)nc4occn34)n2)CC1 [Example 167, N-cyclohexyl-4-({4-[6-(4-fluorophenyl)imidazo[2,1-b][1,3]oxazol-5-yl]pyrimidin-2-yl}amino)piperidine-1-carboxamide]	4.71 µM	
CCCCNC(=O)N1CCC(Nc2nccc(-c3c(-c4ccc(F)cc4)nc4occn34)n2)CC1 [Example 168, N-butyl-4-({4-[6-(4-fluorophenyl)imidazo[2,1-b][1,3]oxazol-5-yl]pyrimidin-2-yl}amino)piperidine-1-carboxamide]	1.11 µM	
O=C(NCCc1ccccc1)N1CCC(Nc2nccc(-c3c(-c4ccc(F)cc4)nc4occn34)n2)CC1 [Example 169, 4-({4-[6-(4-fluorophenyl)imidazo[2,1-b][1,3]oxazol-5-yl]pyrimidin-2-yl}amino)-N-(2-phenylethyl)piperidine-1-carboxamide]	0.266 µM	
O=C(NCc1ccccc1)N1CCC(Nc2nccc(-c3c(-c4ccc(F)cc4)nc4occn34)n2)CC1 [Example 170, N-benzyl-4-({4-[6-(4-fluorophenyl)imidazo[2,1-b][1,3]oxazol-5-yl]pyrimidin-2-yl}amino)piperidine-1-carboxamide]	0.189 µM	
O=C(Nc1ccccc1)N1CCC(Nc2nccc(-c3c(-c4ccc(F)cc4)nc4occn34)n2)CC1 [Example 171, 4-({4-[6-(4-fluorophenyl)imidazo[2,1-b][1,3]oxazol-5-yl]pyrimidin-2-yl}amino)-N-phenylpiperidine-1-carboxamide]	4.73 µM	
Cc1ccc(NC(=O)N2CCC(Nc3nccc(-c4c(-c5ccc(F)cc5)nc5occn45)n3)CC2)cc1 [Example 172, 4-({4-[6-(4-fluorophenyl)imidazo[2,1-b][1,3]oxazol-5-yl]pyrimidin-2-yl}amino)-N-(4-methylphenyl)piperidine-1-carboxamide]	1.98 µM	
COc1ccc(NC(=O)N2CCC(Nc3nccc(-c4c(-c5ccc(F)cc5)nc5occn45)n3)CC2)cc1 [Example 173, 4-({4-[6-(4-fluorophenyl)imidazo[2,1-b][1,3]oxazol-5-yl]pyrimidin-2-yl}amino)-N-(4-methoxyphenyl)piperidine-1-carboxamide]	2.56 µM	
O=C(Nc1ccc(F)cc1)N1CCC(Nc2nccc(-c3c(-c4ccc(F)cc4)nc4occn34)n2)CC1 [Example 174, N-(4-fluorophenyl)-4-({4-[6-(4-fluorophenyl)imidazo[2,1-b][1,3]oxazol-5-yl]pyrimidin-2-yl}amino)piperidine-1-carboxamide]	4.73 µM	
CN(C)c1ccc(NC(=O)N2CCC(Nc3nccc(-c4c(-c5ccc(F)cc5)nc5occn45)n3)CC2)cc1 [Example 175, N-[4-(dimethylamino)phenyl]-4-({4-[6-(4-fluorophenyl)imidazo[2,1-b][1,3]oxazol-5-yl]pyrimidin-2-yl}amino)piperidine-1-carboxamide]	0.066 µM	
O=C(NCc1ccco1)N1CCC(Nc2nccc(-c3c(-c4ccc(F)cc4)nc4occn34)n2)CC1 [Example 176, 4-({4-[6-(4-fluorophenyl)imidazo[2,1-b][1,3]oxazol-5-yl]pyrimidin-2-yl}amino)-N-(2-furylmethyl)piperidine-1-carboxamide]	0.082 µM	
O=C(NC1CCCCO1)N1CCC(Nc2nccc(-c3c(-c4ccc(F)cc4)nc4occn34)n2)CC1 (stereo not shown) [Example 177, 4-({4-[6-(4-fluorophenyl)imidazo[2,1-b][1,3]oxazol-5-yl]pyrimidin-2-yl}amino)-N-(tetrahydro-2H-pyran-2-yl)piperidine-1-carboxamide]	0.354 µM	
Cc1noc(C)c1NC(=O)N1CCC(Nc2nccc(-c3c(-c4ccc(F)cc4)nc4occn34)n2)CC1 [Example 178, N-(3,5-dimethylisoxazol-4-yl)-4-({4-[6-(4-fluorophenyl)imidazo[2,1-b][1,3]oxazol-5-yl]pyrimidin-2-yl}amino)piperidine-1-carboxamide]		inhibition at 10 µM: 19%
O=C(Cc1ccc(F)cc1)N1CCC(Nc2nccc(-c3c(-c4ccc(F)cc4)nc4occn34)n2)CC1 [Example 179, N-{1-[(4-fluorophenyl)acetyl]piperidin-4-yl}-4-[6-(4-fluorophenyl)imidazo[2,1-b][1,3]oxazol-5-yl]pyrimidin-2-amine]		inhibition at 10 µM: 29%
CC(C)CC(=O)N1CCC(Nc2nccc(-c3c(-c4ccc(F)cc4)nc4occn34)n2)CC1 [Example 180, 4-[6-(4-fluorophenyl)imidazo[2,1-b][1,3]oxazol-5-yl]-N-[1-(3-methylbutanoyl)piperidin-4-yl]pyrimidin-2-amine]	2.04 µM	
O=C(c1ccc(F)cc1)N1CCC(Nc2nccc(-c3c(-c4ccc(F)cc4)nc4occn34)n2)CC1 [Example 181, N-[1-(4-fluorobenzoyl)piperidin-4-yl]-4-[6-(4-fluorophenyl)imidazo[2,1-b][1,3]oxazol-5-yl]pyrimidin-2-amine]	2.7 µM	
O=C(Nc1ccc(C(F)(F)F)cc1)N1CCC(Nc2nccc(-c3c(-c4ccc(F)cc4)nc4occn34)n2)CC1 [Example 182, 4-({4-[6-(4-fluorophenyl)imidazo[2,1-b][1,3]oxazol-5-yl]pyrimidin-2-yl}amino)-N-[4-(trifluoromethyl)phenyl]piperidine-1-carboxamide]		inhibition at 10 µM: 45%

SMILES	IC50 (read-out: Mutant B-RAF IC50)	further results
O=C(NCC1CCCCC1)N1CCC(Nc2nccc(-c3c(-c4ccc(F)cc4)nc4occn34)n2)CC1 [Example 183, N-(cyclohexylmethyl)-4-({4-[6-(4-fluorophenyl)imidazo[2,1-b][1,3]oxazol-5-yl]pyrimidin-2-yl}amino)piperidine-1-carboxamide]	3.61 µM	
O=C(NCCc1ccc(F)cc1)N1CCC(Nc2nccc(-c3c(-c4ccc(F)cc4)nc4occn34)n2)CC1 [Example 184, N-[2-(4-fluorophenyl)ethyl]-4-({4-[6-(4-fluorophenyl)imidazo[2,1-b][1,3]oxazol-5-yl]pyrimidin-2-yl}amino)piperidine-1-carboxamide]	1.28 µM	
CC(C)(C)NC(=O)N1CCC(Nc2nccc(-c3c(-c4ccc(F)cc4)nc4occn34)n2)CC1 [Example 185, N-(tert-butyl)-4-({4-[6-(4-fluorophenyl)imidazo[2,1-b][1,3]oxazol-5-yl]pyrimidin-2-yl}amino)piperidine-1-carboxamide]	1.58 µM	
Cc1cc(NC(=O)N2CCC(Nc3nccc(-c4c(-c5ccc(F)cc5)nc5occn45)n3)CC2)c(C(F)(F)F)o1 [Example 186, 4-({4-[6-(4-fluorophenyl)imidazo[2,1-b][1,3]oxazol-5-yl]pyrimidin-2-yl}amino)-N-[5-methyl-2-(trifluoromethyl)-3-furyl]piperidine-1-carboxamide]		inhibition at 10 µM: 16%
O=C(Nc1ccccc1F)N1CCC(Nc2nccc(-c3c(-c4ccc(F)cc4)nc4occn34)n2)CC1 [Example 187, N-(2-fluorophenyl)-4-({4-[6-(4-fluorophenyl)imidazo[2,1-b][1,3]oxazol-5-yl]pyrimidin-2-yl}amino)piperidine-1-carboxamide]		inhibition at 10 µM: 10%
CCC(=O)N1CCC(Nc2nccc(-c3c(-c4ccc(F)cc4)nc4occn34)n2)CC1 [Example 188, 4-[6-(4-fluorophenyl)imidazo[2,1-b][1,3]oxazol-5-yl]-N-(1-propionylpiperidin-4-yl)pyrimidin-2-amine]	1.5 µM	
O=C(CCc1ccccc1)N1CCC(Nc2nccc(-c3c(-c4ccc(F)cc4)nc4occn34)n2)CC1 [Example 189, 4-[6-(4-fluorophenyl)imidazo[2,1-b][1,3]oxazol-5-yl]-N-[1-(3-phenylpropanoyl)piperidin-4-yl]pyrimidin-2-amine]	1.94 µM	
NCC(=O)N1CCC(Nc2nccc(-c3c(-c4ccc(F)cc4)nc4occn34)n2)CC1 [Example 190, N-[1-(aminoacetyl)piperidin-4-yl]-4-[6-(4-fluorophenyl)imidazo[2,1-b][1,3]oxazol-5-yl]pyrimidin-2-amine]	1.15 µM	
CC(C)(N)C(=O)N1CCC(Nc2nccc(-c3c(-c4ccc(F)cc4)nc4occn34)n2)CC1 [Example 191, N-[1-(2-amino-2-methylpropanoyl)piperidin-4-yl]-4-[6-(4-fluorophenyl)imi-dazo[2,1-b][1,3]oxazol-5-yl]pyrimidin-2-amine]		IC50: 3.76 µM
O=C([C@@H]1CCCN1)N1CCC(Nc2nccc(-c3c(-c4ccc(F)cc4)nc4occn34)n2)CC1 [Example 192, 4-[6-(4-fluorophenyl)imidazo[2,1-b][1,3]oxazol-5-yl]-N-(1-L-prolylpiperidin-4-yl)pyrimidin-2-amine]	1.45 µM	
O=C(Nc1ccc(F)c(F)c1)N1CCC(Nc2nccc(-c3c(-c4ccc(F)cc4)nc4occn34)n2)CC1 [Example 193, N-(3,4-difluorophenyl)-4-({4-[6-(4-fluorophenyl)imidazo[2,1-b][1,3]oxazol-5-yl]pyrimidin-2-yl}amino)piperidine-1-carboxamide]	1.23 µM	
O=C(NCc1ccc(F)cc1)N1CCC(Nc2nccc(-c3c(-c4ccc(F)cc4)nc4occn34)n2)CC1 [Example 194, N-(4-fluorobenzyl)-4-({4-[6-(4-fluorophenyl)imidazo[2,1-b][1,3]oxazol-5-yl]pyrimidin-2-yl}amino)piperidine-1-carboxamide]		inhibition at 10 µM: 55%
C[C@H](NC(=O)N1CCC(Nc2nccc(-c3c(-c4ccc(F)cc4)nc4occn34)n2)CC1)c1ccccc1 [Example 195, 4-({4-[6-(4-fluorophenyl)imidazo[2,1-b][1,3]oxazol-5-yl]pyrimidin-2-yl}amino)-N-[(1S)-1-phenylethyl]piperidine-1-carboxamide]		inhibition at 10 µM: 56%
N[C@@H](CCC(=O)O)C(=O)N1CCC(Nc2nccc(-c3c(-c4ccc(F)cc4)nc4occn34)n2)CC1 [Example 196, (4S)-4-amino-5-[4-({4-[6-(4-fluorophenyl)imidazo[2,1-b][1,3]oxazol-5-yl]pyrimidin-2-yl}amino)piperidin-1-yl]-5-oxopentanoic acid]	3.32 µM	
O=S(=O)(c1ccccc1)N1CCC(Nc2nccc(-c3c(-c4ccc(F)cc4)nc4occn34)n2)CC1 [Example 197, 4-[6-(4-fluorophenyl)imidazo[2,1-b][1,3]oxazol-5-yl]-N-[1-(phenylsulfonyl)piperidin-4-yl]pyrimidin-2-amine]	0.168 µM	
